In PMC4229968, “The Inhibition of the Components from Shengmai Injection towards UDP-Glucuronosyltransferase” (Evidence-based Complementary and Alternative Medicine : eCAM, 2014):

Legend:
UGT1A4 = biological target: T1, UGT1A4 (Homo sapiens, UniProt P22310); assay: Recombinant UGT1A4-catalyzed trifluoperazine (TFP) glucuronidation inhibition; type: in vitro ADME; settings: for activity at 20 min, 100 μM: UGT1A4, 100 μM of compound, TFP substrate (40 μM), read-out: residual activity
T1 construct: purchased BD Gentest Corp. (Woburn, MA, USA); host or cells: baculovirus-infected insect cells
T1 sequence (P22310 29-534): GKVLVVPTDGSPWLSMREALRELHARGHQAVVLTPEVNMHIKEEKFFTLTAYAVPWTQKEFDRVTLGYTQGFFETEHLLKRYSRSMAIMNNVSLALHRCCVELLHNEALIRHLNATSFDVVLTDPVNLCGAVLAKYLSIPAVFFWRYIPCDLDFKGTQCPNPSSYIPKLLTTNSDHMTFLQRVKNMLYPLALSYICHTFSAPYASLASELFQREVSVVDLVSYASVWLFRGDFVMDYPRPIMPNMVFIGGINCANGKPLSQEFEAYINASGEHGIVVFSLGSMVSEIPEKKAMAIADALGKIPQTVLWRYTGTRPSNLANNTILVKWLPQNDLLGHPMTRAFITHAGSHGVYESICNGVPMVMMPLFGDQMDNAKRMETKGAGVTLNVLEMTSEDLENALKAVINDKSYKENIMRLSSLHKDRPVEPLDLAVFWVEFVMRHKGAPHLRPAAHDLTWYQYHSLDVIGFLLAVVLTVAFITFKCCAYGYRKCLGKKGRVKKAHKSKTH
Source text: (§1) 4-Methylumbelliferone (4-MU), 4-methylumbelliferone-β-D-glucuronide (4-MUG), Tris-HCl, 7-hydroxycoumarin, and uridine-5′-diphosphoglucuronic acid (UDPGA) (trisodium salt) were purchased from Sigma-Aldrich (St. Louis, MO). Recombinant human UGT isoforms (UGT1A1, UGT1A3, UGT1A4, UGT1A6, UGT1A7, UGT1A8, UGT1A9, UGT1A10, UGT2B4, UGT2B7, and UGT2B15) expressed in baculovirus-infected insect cells were obtained from BD Gentest Corp. (Woburn, MA, USA). Ophiopogonin D (OD), ophiopogonin D′ (OD′), methylophiopogonanone A (MA), methylophiopogonanone B (MB), and ruscorectal (RU) were purchased from Sichuan Weikeqi Biotechnology Company (Chengdu, Sichuan, China). The purity of these compounds was above 95%. All other reagents were of HPLC grade or of the highest grade commercially available.
Therefore, UGT1A4-catalyzed trifluoperazine (TFP) glucuronidation was carried out to evaluate inhibition of maidong's components towards UGT1A4 activity. As previously reported, TFP (40 μM, near its K m value) was incubated with 0.1 mg/mL recombinant UGT1A4 for 20 min in the presence or absence of maidong's ingredients.
To determine the inhibition kinetic type and parameters (K i), the reaction velocity (V) was determined at multiple concentrations of maidong's components and 4-MU (or TFP). Dixon plot and Lineweaver-Burk plot were used to fit the data. The inhibition kinetic type was evaluated through determining the intersection point in the Dixon and Lineweaver-Burk plots.
K m value is the substrate concentration in which the velocity reached half of the maximum velocity (V max) of the reaction. K i value is the inhibition constant.

UGT2B7 = biological target: T2, UGT2B7 (Homo sapiens, UniProt P16662); assay: Recombinant UGT2B7-catalyzed 4-MU glucuronidation inhibition; type: in vitro ADME; settings: pH 7.4, probe 4-methylumbelliferone (4-MU), UGT2B7, 100 μM of compound, 4-MU substrate, read-out: residual activity
T2 construct: purchased BD Gentest Corp. (Woburn, MA, USA); host or cells: baculovirus-infected insect cells
T2 sequence (P16662 24-529): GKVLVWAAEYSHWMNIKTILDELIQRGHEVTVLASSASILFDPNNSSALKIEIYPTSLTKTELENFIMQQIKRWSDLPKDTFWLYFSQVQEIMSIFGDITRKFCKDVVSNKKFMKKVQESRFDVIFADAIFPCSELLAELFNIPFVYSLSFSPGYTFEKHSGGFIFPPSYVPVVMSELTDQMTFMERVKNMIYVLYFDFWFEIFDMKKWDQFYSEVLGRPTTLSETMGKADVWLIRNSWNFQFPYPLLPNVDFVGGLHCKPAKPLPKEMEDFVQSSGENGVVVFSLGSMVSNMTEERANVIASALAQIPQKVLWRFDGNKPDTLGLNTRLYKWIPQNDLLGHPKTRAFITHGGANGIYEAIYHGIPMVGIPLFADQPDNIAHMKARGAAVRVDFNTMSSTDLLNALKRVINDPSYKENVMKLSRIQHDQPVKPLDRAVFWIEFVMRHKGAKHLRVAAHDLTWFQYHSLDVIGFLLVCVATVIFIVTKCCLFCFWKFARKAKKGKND
Source text: as §1
4-MU, the nonspecific probe substrate for all the UGT isoforms except UGT1A4, was used in the present study to initially screen the inhibition potential of maidong's components towards UGT isoforms as previously reported. In brief, the incubation system (total volume = 200 μL) consisted of recombinant UGTs, 5 mM UDPGA, 5 mM MgCl2, 50 mM Tris-HCl (pH = 7.4), and 4-MU in the absence or presence of different concentrations of maidong's components. The compounds were dissolved in DMSO, and the final concentration of DMSO was below 0.5% (v/v). The used incubation time and protein concentration were previously determined to ensure the reaction rate within the linear range. The 4-MU concentration was equal to known K m or S 50 values for each UGT isoform. After 5 min preincubation at 37°C, the incubation reaction was initiated via adding UDPGA to the mixture system. The reactions were quenched by adding 100 μL acetonitrile with 7-hydroxycoumarin (100 μM) as internal standard. Centrifuged at 20000 ×g for 10 min, an aliquot of supernatant was transferred to an autoinjector vial for HPLC analysis. The HPLC system (Shimadzu, Kyoto, Japan) contained a SCL-10A system controller, two LC-10AT pumps, a SIL-10A autoinjector, and a SPD-10AVP UV detector. Chromatographic separation was carried out using a C18 column (4.6 × 200 mm, 5 μm, Kromasil) at a flow rate of 1 mL/min and UV detector at 316 nm. The mobile phase consisted of acetonitrile (A) and H2O containing 0.5% (v/v) formic acid (B). The following gradient condition was used: 0–15 min, 95–40% B; 15–20 min, 10% B; 20–30 min, 95% B.

[1] = human, probe trifluoperazine (TFP)

Row | Structure (SMILES) | activity at 20 min, 100 μM (UGT1A4; [1]) | activity at 100 µM (UGT2B7) | inhibition type (UGT1A4; UGT1A4, TFP glucuronidation, Dixon and Lineweaver-Burk plots) | Ki (UGT1A4; UGT1A4-catalyzed TFP glucuronidation, read-out: inhibition kinetic parameter (Ki)) | inhibition at 20 min, 100 µM (UGT1A4; human, probe trifluoperazine (TFP), 40 μM, UGT1A4, at 100 μM, read-out: inhibition percent)
1 | COc1ccc(C[C@@H]2COc3c(C)c(O)c(C)c(O)c3C2=O)cc1 [MB, methylophiopogonanone B] | 81.1 ± 8% | 82.8 ± 14.5% | – | – | –
2 | C[C@@H]1CC[C@@]2(OC1)O[C@H]1C[C@H]3[C@@H]4CC=C5C[C@@H](O[C@@H]6O[C@H](CO)[C@@H](O)[C@H](O[C@@H]7OC[C@@H](O)[C@H](O)[C@H]7O)[C@H]6O[C@@H]6O[C@@H](C)[C@H](O)[C@@H](O)[C@H]6O)CC[C@]5(C)[C@H]4CC[C@]3(C)[C@H]1[C@@H]2C [OD′, ophiopogonin D′] | 21 ± 1.6% | 77.4 ± 7.1% | – | – | –
3 | Cc1c(O)c(C)c2c(c1O)C(=O)[C@H](Cc1ccc3c(c1)OCO3)CO2 [MA, methylophiopogonanone A] | 70.4 ± 3.8% | 23.3 ± 16.7% | – | – | –
4 | C[C@@H]1CC[C@@]2(OC1)O[C@H]1C[C@H]3[C@@H]4CC=C5C[C@@H](O)C[C@@H](O[C@@H]6O[C@H](C)[C@H](O)[C@H](O[C@@H]7OC[C@@H](O)[C@H](O)[C@H]7O)[C@H]6O[C@@H]6O[C@@H](C)[C@H](O)[C@@H](O)[C@H]6O)[C@]5(C)[C@H]4CC[C@]3(C)[C@H]1[C@@H]2C [OD, ophiopogonin D] | 24.6 ± 1.6% | 85.4 ± 7.3% | – | – | –
5 | CC1CCC2(OC1)OC1CC3C4CC=C5CC(O)CC(O)C5(C)C4CCC3(C)C1C2C (stereo not shown) [RU, ruscorectal] | 0% | 125 ± 59% | competitive inhibition | 20 nM | ~100%
